# Patent publication US10961238B2, “Modulators of hedgehog (Hh) signaling pathway” (E-THERAPEUTICS PLC, priority 2016, dated 2021)
# Test system: C3H10T1/2 cells
# Assay: C3H assay: differentiation of C3H10T1/2 cells by mSHH, measurement of alkaline phosphatase
# Type: cell-based, mouse
# Settings: Mus musculus, C3H 10T1/2; C3H10T1/2 cells stimulated with mSHH for 72 hours; alkaline phosphatase activity; read-out: IC50 Ranges
row,Compound,IC50 [µM]
1,"CC(C)(C)OC(=O)N1CC(S(=O)(=O)N2CCC(c3c[nH]c4ncc(F)cc34)CC2)C1 [Compound 1, tert-butyl 3[4-(5-fluoro-1H-pyrrolo[2,3-b]pyridin-3-yl)piperidin-1-yl]sulfonylaze-tidine-1-carboxylate]",0.1 to 1
2,"Cc1cnc2[nH]cc(C3CCN(S(=O)(=O)C4CN(C(=O)OC(C)(C)C)C4)CC3)c2c1 [Compound 2, tert-butyl 3-[4-(5-methyl-1H-pyrrolo[2,3-b]pyridin-3-yl)piperidin-1-yl] sulfonylaze-tidine-1-carboxylate]",1 to 10
3,"CC(C)(C)OC(=O)N1CC(S(=O)(=O)N2CCC(c3cncn3Cc3ccccc3)CC2)C1 [Compound 3, tert-butyl 3-[4-(3-benzylimidazol-4-yl)piperidin-1-yl]sulfonylaze-tidine-1-carboxylate]",0.1 to 1
4,"CC(C)(C)OC(=O)N1CCn2c(C3CCN(S(=O)(=O)C4CN(C(=O)OC(C)(C)C)C4)CC3)cnc2C1 [Compound 4, tert-butyl 3-[1-[1-[(2-methylpropan-2-yl)oxycarbonyl]azetidin-3-yl]sulfonylpiper-idin-4-yl]-6,8-dihydro-5H-imidazo[1,2-a]pyrazine-7-carboxylate]",1 to 10
5,"CC(C)(C)OC(=O)N1CC(S(=O)(=O)N2CCC(c3cnc4n3CCC4)CC2)C1 [Compound 5, tert-butyl 3-[4-(6,7-dihydro-5H-pyrrolo[1,2-a]imidazol-3-yl)piperidin-1-yl]sulfonylaze-tidine-1-carboxylate]",1 to 10
6,"COc1ccc(C2CCN(S(=O)(=O)C3CN(C(=O)OC(C)(C)C)C3)CC2)cc1 [Compound 6, tert-butyl 3-[4-(4-methoxyphenyl)piperidin-1-yl]sulfonylaze-tidine-1-carboxylate]",0.1 to 1
7,"CC(C)(C)OC(=O)N1CCC(S(=O)(=O)N2CCC(c3ccnc4[nH]ccc34)CC2)CC1 [Compound 7, tert-butyl 4-[4-(1H-pyrrolo[2,3-b]pyridin-4-yl)piperidin-1-yl]sulfonylpiper-idine-1-carboxylate]",0.1 to 1
8,"Cc1ccc(S(=O)(=O)n2ccc3c(C4CCN(S(=O)(=O)C5CCN(C(=O)OC(C)(C)C)CC5)CC4)ccnc32)cc1 [Compound 8, tert-butyl 4-[4-[1-(4-methylphenyl)-sulfonylpyrrolo[2,3-b]pyridin-4-yl]piperidin-1-yl]sulfonylpiper-idine-1-carboxylate]",0.01 to 0.1
9,"Cc1ccc(C2CCN(S(=O)(=O)C3CCN(C(=O)OC(C)(C)C)CC3)CC2)c(C)c1 [Compound 9, tert-butyl 4-[4-(2,4-dimethylphenyl)piperidin-1-yl]sulfonylpiper-idine-1-carboxylate]",1 to 10
10,"CC(C)(C)OC(=O)N1CCC(S(=O)(=O)N2CCC(c3ncnc4[nH]ccc34)CC2)CC1 [Compound 10, tert-butyl 4-[4-(7H-pyrrolo[2,3-d]pyrimidin-4-yl)piperidin-1-yl]sulfonylpiper-idine-1-carboxylate]",1 to 10
11,"CC(C)(C)OC(=O)N1CCC(S(=O)(=O)N2CCC(c3ccnc4ccccc34)CC2)CC1 [Compound 11, tert-butyl 4-(4-quinolin-4-ylpiperidin-1-yl)sulfonylpiper-idine-1-carboxylate]",0.1 to 1
12,"Cc1ccc(S(=O)(=O)n2ccc3c(C4CCN(S(=O)(=O)C5CCN(C(=O)OC(C)(C)C)CC5)CC4)ncnc32)cc1 [Compound 12, tert-butyl 4-[4-[7-(4-methylphenyl)-sulfonylpyrrolo[2,3-d]pyrimidin-4-yl]piperidin-1-yl]sulfonylpiper-idine-1-carboxylate]",0.1 to 1

# The remaining lines, values ahead:
row,IC50 [µM],Compound
1,0.01 to 0.1,"C[C@H]1CC(c2c[nH]c3ncccc23)CCN1S(=O)(=O)C1CN(C(=O)OC(C)(C)C)C1 (mixture of isomers) [Compound 45, tert-butyl 3-[(2R)-2-methyl-4-(1H-pyrrolo[2,3-b]pyridin-3-yl)piperidin-1-yl]sulfonylaze-tidine-1-carboxylate]"
2,0.01 to 0.1,"CN(C)CC(C)(C)OC(=O)N1CCC(S(=O)(=O)N2CCC(c3c[nH]c4ncccc34)CC2)C1 (racemic) [Compound 147, [1-(dimethylamino)-2-methylpropan-2-yl]3-[4-(1H-pyrrolo[2,3-b]pyridin-3-yl)piperidin-1-yl]sulfonylpyrr olidine-1-carboxylate]"
3,0.01 to 0.1,"CC(C)C(CO)NC(=O)N1CCC(S(=O)(=O)N2CCC(c3c[nH]c4ncccc34)CC2)C1 (racemic) [Compound 149, N-(1-hydroxy-3-methylbutan-2-yl)-3-[4-(1H-pyrrolo[2,3-b]pyridin-3-yl)piperidin-1-yl]sulfonylpyrr olidine-1-carboxamide]"
4,0.01 to 0.1,"CC(C)(C)OC(=O)N1CCC(S(=O)(=O)N2CCC(c3c[nH]c4ncccc34)CC2)C1 (racemic) [Compound 150, tert-butyl 3-[4-(1H-pyrrolo[2,3-b]pyridin-3-yl)piperidin-1-yl]sulfonylpyrr olidine-1-carboxylate]"
5,0.1 to 1,"O=S(=O)(C1CCN(c2ccccn2)C1)N1CCC(c2c[nH]c3ncccc23)CC1 (racemic) [Compound 244, 3-[1-(1-pyridin-2-ylpyrrolidin-3-yl)sulfonylpiper-idin-4-yl]-1H-pyrrolo[2,3-b]pyridine]"
6,1 to 10,"O=S(=O)(C1CCNC1)N1CCC(c2c[nH]c3ncccc23)CC1 (racemic) [Compound 249, 3-[1-(pyrrolidin-3-yl)sulfonylpiper-idin-4-yl]-1H-pyrrolo[2,3-b]pyridine]"
7,0.1 to 1,"CC(C)(C)OC(=O)N1CCC(S(=O)(=O)N2CCC(c3ccncc3)CC2)C1 (racemic) [Compound 269, tert-butyl 3-(4-pyridin-4-ylpiperidin-1-yl)sulfonylpyrrolidine-1-carboxylate]"
8,0.1 to 1,"CN(C(=O)N1CCC(S(=O)(=O)N2CCC(c3ccncc3)CC2)C1)C(C)(C)C (racemic) [Compound 271, N-tert-butyl-N-methyl-3-(4-pyridin-4-ylpiperidin-1-yl)sulfonylpyrr olidine-1-carboxamide]"
9,0.1 to 1,"CC(C)[C@H](CO)NC(=O)N1CC(S(=O)(=O)N2CCC(c3ccc(F)cc3)CC2)C1 (racemic) [Compound 344, 3-[4-(4-fluorophenyl)piperidin-1-yl]sulfonyl-N-[1-hydroxy-3-methylbutan-2-yl] azetidine-1-carboxamide]"
10,0.1 to 1,"CC(C)C(CO)NC(=O)N1CC(S(=O)(=O)N2CCC(c3ccc(C#N)cc3)CC2)C1 (racemic) [Compound 348, 3-[4-(4-cyanophenyl)piperidin-1-yl]sulfonyl-N-[1-hydroxy-3-methylbutan-2-yl]azetidine-1-carboxamide]"
11,0.1 to 1,"COc1ccc(C2CCN(S(=O)(=O)C3CCN(C(=O)OC(C)(C)C)CC3)CC2)cc1 [Compound 13, tert-butyl 4-[4-(4-methoxyphenyl)piperidin-1-yl]sulfonylpiper-idine-1-carboxylate]"
12,0.1 to 1,"CC(C)(C)OC(=O)N1CCC(S(=O)(=O)N2CCC(c3ccccc3)CC2)CC1 [Compound 14, tert-butyl 4-(4-phenylpiperidin-1-yl)sulfonylpiper-idine-1-carboxylate]"
13,1 to 10,"COC(=O)c1cnc2[nH]cc(C3CCN(S(=O)(=O)C4CN(C(=O)OC(C)(C)C)C4)CC3)c2c1 [Compound 15, methyl 3-[1-[1-[(2-methylpropan-2-yl)oxycarbonyl]azetidin-3-yl]sulfonylpiper-idin-4-yl]-1H-pyrrolo[2,3-b]pyridine-5-carboxylate]"
